Experimental findings from patent publication US10457687B2, “Aminoacid derivatives, a process for their preparation and pharmaceutical compositions containing them” (LES LABORATOIRES SERVIER, priority 2015, dated 2019) are described below.

The subject of assay [1] is H929 multiple myeloma tumour line. Description: In vitro cytotoxicity, MTT assay, 48 hours. In kind it is cell-based. The following applies: H929 cells, 48 hours exposure, cell viability. The procedure:
The cytotoxicity studies were carried out on the H929 multiple myeloma tumour line.
The cells are distributed onto microplates and exposed to the test compounds for 48 hours.

The next assay addresses Mcl-1 protein (Homo sapiens, UniProt Q07820). In words: Inhibition of Mcl-1 by the fluorescence polarisation technique (Method 1 or Method 2). The assay is classed as binding. The following applies: for IC50: fluorescence polarisation, Fluorescein labelled ligand, Method 1 (not underlined) or Method 2 (underlined), read-out: IC50 (μM) Mcl-1 FP. An outline of the steps:
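Binding measured by FP, with Mcl-1 protein and fluorescein-labelled ligand mixed with compounds in an 11-point series at 5% final DMSO. Method 2 used 10 nM each of protein and ligand in phosphate buffer (20 mM Na2HPO4, 1 mM EDTA, 50 mM NaCl, pH 7.4); Method 1 used 5 nM protein, 1 nM ligand in HEPES buffer (10 mM HEPES, 150 mM NaCl, 0.05% Tween 20, pH 7.4).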
For orientation: Fluorescence polarisation rises when a labelled molecule tumbles more slowly, as on binding a larger partner.

Where [2] appears, read: partial inhibitors, @ 10 μM test compound.

A word on the IC50: it is the concentration that inhibits the measured activity by half. By inhibition is commonly meant the percentage by which the read-out fell short of the control.

Sequence of Mcl-1 protein (Q07820 whole entry): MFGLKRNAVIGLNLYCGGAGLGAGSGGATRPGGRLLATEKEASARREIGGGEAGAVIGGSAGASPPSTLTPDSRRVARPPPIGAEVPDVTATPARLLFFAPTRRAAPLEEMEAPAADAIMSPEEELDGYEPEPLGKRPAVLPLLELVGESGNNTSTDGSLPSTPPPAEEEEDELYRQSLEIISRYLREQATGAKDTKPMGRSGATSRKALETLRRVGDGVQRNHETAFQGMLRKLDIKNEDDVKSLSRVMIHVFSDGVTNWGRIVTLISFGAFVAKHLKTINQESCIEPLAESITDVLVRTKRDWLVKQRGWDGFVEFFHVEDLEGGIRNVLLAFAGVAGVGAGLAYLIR

For the molecule `Cc1c(-c2c(-c3ccc(F)o3)sc3ncnc(N[C@H](Cc4ccccc4OCc4ccnc(OCC(F)(F)F)n4)C(=O)O)c23)ccc(OCCN2CCN(C)CC2)c1Cl` [Example 25, N-[(5Ra)-5-{3-chloro-2-methyl-4-[2-(4-methylpiperazin-1-yl)ethoxy]phenyl}-6-(5-fluorofuran-2-yl)thieno[2,3-d]pyrimidin-4-yl]-2-{[2-(2,2,2-trifluoroethoxy)pyrimidin-4-yl]methoxy}-D-phenylalanine], in assay [1], the IC50 was above 0.6 µM. Moreover, the “percentage fluorescence polarisation inhibition, Mcl-1 FP” value at Mcl-1 protein (setting [2]) amounted to 55.5% @ 10 μM.

In the case of `Cc1c(-c2c(-c3ccc(F)o3)sc3ncnc(NC(Cc4ccccc4OCc4ccnc(OCC(F)(F)F)n4)C(=O)O)c23)ccc(OCCN2CCN(C)CC2)c1Cl` [Example 26, N-[(5Sa)-5-{3-chloro-2-methyl-4-[2-(4-methylpiperazin-1-yl)ethoxy]phenyl}-6-(5-fluorofuran-2-yl)thieno[2,3-d]pyrimidin-4-yl]-2-{[2-(2,2,2-trifluoroethoxy)pyrimidin-4-yl]methoxy}-D-phenylalanine], the IC50 was 0.00636 µM in assay [1] (Homo sapiens, NCI-H929) and 0.012 µM on Mcl-1 protein.

Take `Cc1c(-c2c(-c3ccsc3)sc3ncnc(NC(Cc4ccccn4)C(=O)O)c23)ccc(OCCN2CCOCC2)c1Cl` [Example 36, N-[(5Sa)-5-{3-chloro-2-methyl-4-[2-(morpholin-4-yl)ethoxy]phenyl}-6-(thiophen-3-yl)thieno[2,3-d]pyrimidin-4-yl]-3-pyridin-2-yl-D-alanine]: the IC50 was above 7.5 µM in assay [1] (Homo sapiens, NCI-H929) and 0.086 µM at Mcl-1 protein.

On to `COc1ccccc1CC(Nc1ncnc2sc(-c3ccc(F)o3)c(-c3ccc(OCCN4CCN(C)CC4)c(Cl)c3C)c12)C(=O)O` [Example 16, N-[(5Sa)-5-{3-chloro-2-methyl-4-[2-(4-methylpiperazin-1-yl)ethoxy]phenyl}-6-(5-fluorofuran-2-yl)thieno[2,3-d]pyrimidin-4-yl]-2-methoxy-D-phenylalanine], for which the IC50 in assay [1] (Homo sapiens, NCI-H929) turned out to be 0.0993 µM; on Mcl-1 protein, 0.006 µM.

Consider `COc1ccccc1CC(Nc1ncnc2sc(-c3ccc(F)cc3)c(-c3ccc(OCCN4CCN(C)CC4)c(Cl)c3C)c12)C(=O)O` [Example 1, N-[(5Sa)-5-{3-chloro-2-methyl-4-[2-(4-methylpiperazin-1-yl)ethoxy]phenyl}-6-(4-fluorophenyl)thieno[2,3-d]pyrimidin-4-yl]-2-methoxy-D-phenylalanine], for which the IC50 is above 0.6 µM in assay [1] (Homo sapiens, NCI-H929) and 0.127 µM at Mcl-1 protein.

For `Cc1c(-c2c(-c3ccc(F)cc3)sc3ncnc(NC(Cc4ccccc4OCc4ccnn4C)C(=O)O)c23)ccc(OCCN2CCN(C)CC2)c1Cl` [Example 3, N-[(5Sa)-5-{3-chloro-2-methyl-4-[2-(4-methylpiperazin-1-yl)ethoxy]phenyl}-6-(4-fluorophenyl)thieno[2,3-d]pyrimidin-4-yl]-2-[(1-methyl-1H-pyrazol-5-yl)methoxy]-D-phenylalanine], the IC50 stood at 0.318 µM in assay [1] (Homo sapiens, NCI-H929) and 0.114 µM on Mcl-1 protein.

For the molecule `Cc1c(-c2c(-c3ccc(F)o3)sc3ncnc(NC(Cc4ccccc4O)C(=O)O)c23)ccc(OCCN2CCN(C)CC2)c1Cl` [Example 14, N-[(5Sa)-5-{3-chloro-2-methyl-4-[2-(4-methylpiperazin-1-yl)ethoxy]phenyl}-6-(5-fluorofuran-2-yl)thieno[2,3-d]pyrimidin-4-yl]-2-hydroxy-D-phenylalanine], the IC50 in assay [1] (Homo sapiens, NCI-H929) was found to be 0.721 µM; at Mcl-1 protein, 0.038 µM.

As to `Cc1c(-c2c(-c3ccsc3)sc3ncnc(NC(Cc4ccccn4)C(=O)O)c23)ccc(OCCN2CCOCC2)c1Cl` [Example 35, N-[(5Ra)-5-{3-chloro-2-methyl-4-[2-(morpholin-4-yl)ethoxy]phenyl}-6-(thiophen-3-yl)thieno[2,3-d]pyrimidin-4-yl]-3-pyridin-2-yl-D-alanine], the IC50 in assay [1] is above 30 µM. In addition, the “percentage fluorescence polarisation inhibition, Mcl-1 FP” value at Mcl-1 protein (setting [2]) came to 24.78% @ 10 μM.

Take `CCn1nccc1COc1ccccc1CC(Nc1ncnc2sc(-c3ccc(F)o3)c(-c3ccc(OCCN4CCN(C)CC4)c(Cl)c3C)c12)C(=O)O` [Example 21, N-[(5Sa)-5-{3-chloro-2-methyl-4-[2-(4-methylpiperazin-1-yl)ethoxy]phenyl}-6-(5-fluorofuran-2-yl)thieno[2,3-d]pyrimidin-4-yl]-2-[(1-ethyl-1H-pyrazol-5-yl)methoxy]-D-phenylalanine]: the IC50 in assay [1] (Homo sapiens, NCI-H929) worked out at 0.0397 µM; on Mcl-1 protein, 0.006 µM.

In assay [1], `Cc1c(-c2c(-c3ccsc3)sc3ncnc(NC(Cc4ccccc4CN)C(=O)O)c23)ccc(OCCN2CCOCC2)c1Cl` [Example 37, 2-(aminomethyl)-N-[(5Ra)-5-{3-chloro-2-methyl-4-[2-(morpholin-4-yl)ethoxy]phenyl}-6-(thiophen-3-yl)thieno[2,3-d]pyrimidin-4-yl]-D-phenylalanine] showed an IC50 above 3.75 µM. In addition, on Mcl-1 protein (setting [2]), the “percentage fluorescence polarisation inhibition, Mcl-1 FP” value is recorded as 18.7% @ 10 μM.

Consider `Cc1c(-c2c(-c3ccsc3)sc3ncnc(NC(CC4CCCCC4)C(=O)O)c23)ccc(OCCN2CCN(C)CC2)c1Cl` [Example 32, N-[(5Sa)-5-{3-chloro-2-methyl-4-[2-(4-methylpiperazin-1-yl)ethoxy]phenyl}-6-(thiophen-3-yl)thieno[2,3-d]pyrimidin-4-yl]-3-cyclohexyl-D-alanine], for which the IC50 in assay [1] (Homo sapiens, NCI-H929) is above 3.75 µM; at Mcl-1 protein it was 0.007 µM.

With `CCOc1nccc(COc2ccccc2CC(Nc2ncnc3sc(-c4ccc(F)cc4)c(-c4ccc(OCCN5CCN(C)CC5)c(Cl)c4C)c23)C(=O)O)n1` [Example 4, N-[(5Sa)-5-{3-chloro-2-methyl-4-[2-(4-methylpiperazin-1-yl)ethoxy]phenyl}-6-(4-fluorophenyl)thieno[2,3-d]pyrimidin-4-yl]-2-[(2-ethoxypyrimidin-4-yl)methoxy]-D-phenylalanine], the IC50 in assay [1] (Homo sapiens, NCI-H929) was found to be 0.215 µM; on Mcl-1 protein, 0.005 µM.

With `CC#Cc1sc2ncnc(NC(Cc3ccccc3OCc3ccnn3CC(F)(F)F)C(=O)O)c2c1-c1ccc(OCCN(C)C)c(Cl)c1C` [Example 46, N-[(5Sa)-5-{3-chloro-4-[2-(dimethylamino)ethoxy]-2-methylphenyl}-6-(prop-1-yn-1-yl)thieno[2,3-d]pyrimidin-4-yl]-2-{[1-(2,2,2-trifluoroethyl)-1H-pyrazol-5-yl]methoxy}-D-phenylalanine], the IC50 in assay [1] (Homo sapiens, NCI-H929) came to 0.166 µM; at Mcl-1 protein, 0.024 µM.

`Cc1c(-c2c(-c3ccsc3)sc3ncnc(N[C@H](CC4CCCCC4)C(=O)O)c23)ccc(OCCN2CCN(C)CC2)c1Cl` [Example 31, N-[(5Ra)-5-{3-chloro-2-methyl-4-[2-(4-methylpiperazin-1-yl)ethoxy]phenyl}-6-(thiophen-3-yl)thieno[2,3-d]pyrimidin-4-yl]-3-cyclohexyl-D-alanine]: in assay [1], the IC50 was above 3.75 µM. Moreover, the “percentage fluorescence polarisation inhibition, Mcl-1 FP” value on Mcl-1 protein (setting [2]) came out at 16.7% @ 10 μM.

Turning to `Cc1c(-c2c(-c3ccsc3)sc3ncnc(NC(Cc4ccccn4)C(=O)O)c23)ccc(OCCN2CCN(C)CC2)c1Cl` [Example 29, N-[(5Sa)-5-{3-chloro-2-methyl-4-[2-(4-methylpiperazin-1-yl)ethoxy]phenyl}-6-(thiophen-3-yl)thieno[2,3-d]pyrimidin-4-yl]-3-pyridin-2-yl-D-alanine], the IC50 was found to be 2.52 µM in assay [1] (Homo sapiens, NCI-H929) and 0.063 µM at Mcl-1 protein.

`CC#Cc1sc2ncnc(NC(Cc3ccccc3OC)C(=O)O)c2c1-c1ccc(OCCN2CCN(C)CC2)c(Cl)c1C` [Example 39, N-[(5Sa)-5-{3-chloro-2-methyl-4-[2-(4-methylpiperazin-1-yl)ethoxy]phenyl}-6-(prop-1-yn-1-yl)thieno[2,3-d]pyrimidin-4-yl]-2-methoxy-D-phenylalanine]: the IC50 worked out at 0.401 µM in assay [1] (Homo sapiens, NCI-H929) and 0.025 µM at Mcl-1 protein.

On to `CCCCn1nccc1COc1ccccc1CC(Nc1ncnc2sc(-c3ccc(F)cc3)c(-c3ccc(OCCN4CCN(C)CC4)c(Cl)c3C)c12)C(=O)O` [Example 6, 2-[(1-butyl-1H-pyrazol-5-yl)methoxy]-N-[(5Sa)-5-{3-chloro-2-methyl-4-[2-(4-methylpiperazin-1-yl)ethoxy]phenyl}-6-(4-fluorophenyl)thieno[2,3-d]pyrimidin-4-yl]-D-phenylalanine], for which the IC50 is above 0.6 µM in assay [1] (Homo sapiens, NCI-H929) and 0.013 µM at Mcl-1 protein.

In assay [1] (Homo sapiens, NCI-H929), `Cc1c(-c2c(-c3ccco3)sc3ncnc(N[C@H](Cc4ccccc4C(N)=O)C(=O)O)c23)ccc(OCCN2CCN(C)CC2)c1Cl` [Example 11, 2-carbamoyl-N-[5-{3-chloro-2-methyl-4-[2-(4-methylpiperazin-1-yl)ethoxy]phenyl}-6-(furan-2-yl)thieno[2,3-d]pyrimidin-4-yl]-D-phenylalanine] returned an IC50 above 3.75 µM. The inhibition at 10 µM on Mcl-1 protein (partial inhibitors, @ 10 μM test compound, read-out: percentage fluorescence polarisation inhibition, Mcl-1 FP) was determined as 35.5%.

For the molecule `CC#Cc1sc2ncnc(NC(Cc3ccccc3OCc3ccnc(N4CCOCC4)n3)C(=O)O)c2c1-c1ccc(OCCN(C)C)c(Cl)c1C` [Example 47, N-[(5Sa)-5-{3-chloro-4-[2-(dimethylamino)ethoxy]-2-methylphenyl}-6-(prop-1-yn-1-yl)thieno[2,3-d]pyrimidin-4-yl]-2-{[2-(morpholin-4-yl)pyrimidin-4-yl]methoxy}-D-phenylalanine], the IC50 in assay [1] (Homo sapiens, NCI-H929) amounted to 0.0839 µM; at Mcl-1 protein, 0.008 µM.

Turning to `Cc1c(-c2c(-c3ccsc3)sc3ncnc(NC(Cc4ccccc4CN)C(=O)O)c23)ccc(OCCN2CCOCC2)c1Cl` [Example 38, 2-(aminomethyl)-N-[(5Sa)-5-{3-chloro-2-methyl-4-[2-(morpholin-4-yl)ethoxy]phenyl}-6-(thiophen-3-yl)thieno[2,3-d]pyrimidin-4-yl]-D-phenylalanine], the IC50 is above 3.75 µM in assay [1] (Homo sapiens, NCI-H929) and 1.87 µM at Mcl-1 protein.
